{"source": "ChEMBL document CHEMBL1131792", "about": "“Structure-based design of a non-peptidic antagonist of the SH2 domain of GRB2” (Bioorg Med Chem Lett, 1999)", "key": {"[1]": {"biological_target": "T1, Growth factor receptor-bound protein 2 (Homo sapiens, UniProt P62993)", "assay": "Inhibition of Grb2 SH2 domain binding to phospho-EGF receptor intracellular C-terminal domain"}, "[2]": {"biological_target": "T1, Growth factor receptor-bound protein 2", "assay": "Inhibition of Grb2 SH2 domain binding to phospho-EGF receptor intracellular C-terminal domain at 5 mM"}}, "data": [{"smiles": "Cc1sc(-c2nccc(N)n2)nc1-c1ccc(OP(=O)(O)O)cc1", "values": [{"measurement": "IC50", "setting": "[1]", "result": 25.9, "unit": "µM"}]}, {"smiles": "Nc1ccnc(NCCc2ccc(OP(=O)(O)O)cc2)n1", "values": [{"measurement": "IC50", "setting": "[1]", "result": "> 200", "unit": "µM"}]}, {"smiles": "O=P(O)(O)Oc1ccccc1", "values": [{"measurement": "inhibition", "setting": "[2]", "result": 55, "unit": "%"}]}]}
